# Experiments:
# KM12 = test: NCI60 antitumor screening; assay type: cell-based, human; settings: Homo sapiens; 10 μM single dose; KM12 (colon cancer); read-out: growth inhibition percent (GI%)
# IGROV1 = test: NCI60 antitumor screening; assay type: cell-based, human; settings: Homo sapiens, IGROV-1; 10 μM single dose; IGROV1 (ovarian cancer); read-out: growth inhibition percent (GI%)
# LOX IMVI = test: NCI60 antitumor screening; assay type: cell-based, human; settings: Homo sapiens; 10 μM single dose; LOX IMVI (melanoma); read-out: growth inhibition percent (GI%)
# MDA-MB-435 = test: NCI60 antitumor screening; assay type: cell-based, human; settings: Homo sapiens; 10 μM single dose; MDA-MB-435 (melanoma); read-out: growth inhibition percent (GI%)
# MDA-MB-231/ATCC = test: NCI60 antitumor screening; assay type: cell-based, human; settings: Homo sapiens; 10 μM single dose; MDA-MB-231/ATCC (breast cancer); read-out: growth inhibition percent (GI%)
# T-47D = test: NCI60 antitumor screening; assay type: cell-based, human; settings: Homo sapiens, T47D; 10 μM single dose; T-47D (breast cancer); read-out: growth inhibition percent (GI%)
# M14 = test: NCI60 antitumor screening; assay type: cell-based, human; settings: Homo sapiens; 10 μM single dose; M14 (melanoma); read-out: growth inhibition percent (GI%)
# OVCAR-3 = test: NCI60 antitumor screening; assay type: cell-based, human; settings: Homo sapiens; 10 μM single dose; OVCAR-3 (ovarian cancer); read-out: growth inhibition percent (GI%)
# SR = test: NCI60 antitumor screening; assay type: cell-based, human; settings: Homo sapiens; 10 μM single dose; SR (leukaemia); read-out: growth inhibition percent (GI%)
# NCI60 cell lines panel = test: NCI60 antitumor screening, full panel; assay type: cell-based, human; settings: Homo sapiens; 10 μM single dose; mean over NCI60 cell lines; read-out: Mean growth inhibition percent (GI%)
# In short: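 Single-concentration screen at 10 μM across the NCI60 panel (leukaemia, NSCLC, colon, CNS, melanoma, ovarian, renal, prostate, breast). Results are expressed as percent growth inhibition (GI%) of treated lines.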
# U251 = test: NCI60 antitumor screening; assay type: cell-based, human; settings: Homo sapiens, U-251; 10 μM single dose; U251 (CNS cancer); read-out: growth inhibition percent (GI%)
# NCI-H226 = test: NCI60 antitumor screening; assay type: cell-based, human; settings: Homo sapiens; 10 μM single dose; NCI-H226 (non-small cell lung cancer); read-out: growth inhibition percent (GI%)
# A498 = test: NCI60 antitumor screening; assay type: cell-based, human; settings: Homo sapiens; 10 μM single dose; A498 (renal cancer); read-out: growth inhibition percent (GI%)
# UACC-62 = test: NCI60 antitumor screening; assay type: cell-based, human; settings: Homo sapiens; 10 μM single dose; UACC-62 (melanoma); read-out: growth inhibition percent (GI%)
# BT-549 = test: NCI60 antitumor screening; assay type: cell-based, human; settings: Homo sapiens; 10 μM single dose; BT-549 (breast cancer); read-out: growth inhibition percent (GI%)
# HT29 = test: NCI60 antitumor screening; assay type: cell-based, human; settings: Homo sapiens, HT-29; 10 μM single dose; HT29 (colon cancer); read-out: growth inhibition percent (GI%)
# SF-295 = test: NCI60 antitumor screening; assay type: cell-based, human; settings: Homo sapiens; 10 μM single dose; SF-295 (CNS cancer); read-out: growth inhibition percent (GI%)
# OVCAR-5 = test: NCI60 antitumor screening; assay type: cell-based, human; settings: Homo sapiens; 10 μM single dose; OVCAR-5 (ovarian cancer); read-out: growth inhibition percent (GI%)
# EKVX = test: NCI60 antitumor screening; assay type: cell-based, human; settings: Homo sapiens; 10 μM single dose; EKVX (non-small cell lung cancer); read-out: growth inhibition percent (GI%)
# SW-620 = test: NCI60 antitumor screening; assay type: cell-based, human; settings: Homo sapiens; 10 μM single dose; SW-620 (colon cancer); read-out: growth inhibition percent (GI%)
# RXF 393 = test: NCI60 antitumor screening; assay type: cell-based, human; settings: Homo sapiens; 10 μM single dose; RXF 393 (renal cancer); read-out: growth inhibition percent (GI%)
# A549/ATCC = test: NCI60 antitumor screening; assay type: cell-based, human; settings: Homo sapiens; 10 μM single dose; A549/ATCC (non-small cell lung cancer); read-out: growth inhibition percent (GI%)
# TK-10 = test: NCI60 antitumor screening; assay type: cell-based, human; settings: Homo sapiens; 10 μM single dose; TK-10 (renal cancer); read-out: growth inhibition percent (GI%)
# HCT-15 = test: NCI60 antitumor screening; assay type: cell-based, human; settings: Homo sapiens; 10 μM single dose; HCT-15 (colon cancer); read-out: growth inhibition percent (GI%)
# HL-60(TB) = test: NCI60 antitumor screening; assay type: cell-based, human; settings: Homo sapiens; 10 μM single dose; HL-60(TB) (leukaemia); read-out: growth inhibition percent (GI%)
# CAKI-1 = test: NCI60 antitumor screening; assay type: cell-based, human; settings: Homo sapiens; 10 μM single dose; CAKI-1 (renal cancer); read-out: growth inhibition percent (GI%)
SMILES,inhibition at 10 µM (KM12) [%],inhibition at 10 µM (IGROV1) [%],inhibition at 10 µM (LOX IMVI) [%],inhibition at 10 µM (MDA-MB-435) [%],inhibition at 10 µM (T-47D) [%],inhibition at 10 µM (M14) [%],inhibition at 10 µM (OVCAR-3) [%],inhibition at 10 µM (NCI60 cell lines panel) [%],inhibition at 10 µM (U251) [%],inhibition at 10 µM (NCI-H226) [%],inhibition at 10 µM (A498) [%],inhibition at 10 µM (UACC-62) [%],inhibition at 10 µM (BT-549) [%],inhibition at 10 µM (HT29) [%],inhibition at 10 µM (SF-295) [%],inhibition at 10 µM (OVCAR-5) [%],inhibition at 10 µM (EKVX) [%],melting point [°C],inhibition at 10 µM (SW-620) [%],inhibition at 10 µM (RXF 393) [%],further results
"N#Cc1c(-c2ccc(F)cc2)nc(SCc2ccccc2)nc1N1CCN(c2ccccc2)CC1 [4m, 2-(Benzylthio)-4-(4-fluorophenyl)-6-(4-phenylpiperazin-1-yl) pyrimidine-5-carbonitrile]",< 10,< 10,< 10,< 10,15.1,< 10,< 10,< 10,< 10,< 10,< 10,16.2,< 10,< 10,< 10,< 10,< 10,165 to 167,< 10,< 10,inhibition at 10 µM (MDA-MB-231/ATCC): < 10%; inhibition at 10 µM (SR): < 10%; inhibition at 10 µM (A549/ATCC): < 10%; inhibition at 10 µM (TK-10): < 10%; inhibition at 10 µM (HCT-15): 10.8%; inhibition at 10 µM (HL-60(TB)): < 10%; inhibition at 10 µM (CAKI-1): 10.7%
"N#Cc1c(-c2ccc(F)cc2)nc(SCc2ccc([N+](=O)[O-])cc2)nc1N1CCN(c2ccccc2)CC1 [4o, 4-(4-Fluorophenyl)-2-((4-nitrobenzyl)thio)-6-(4-phenylpiperazin-1-yl)pyrimidine-5-carbonitrile]",< 10,< 10,< 10,< 10,< 10,< 10,< 10,< 10,< 10,< 10,< 10,18.1,< 10,< 10,< 10,< 10,13.9,165 to 167,< 10,< 10,inhibition at 10 µM (A549/ATCC): < 10%; inhibition at 10 µM (TK-10): < 10%; inhibition at 10 µM (HCT-15): < 10%; inhibition at 10 µM (HL-60(TB)): < 10%; inhibition at 10 µM (CAKI-1): 13.7%
"Cc1ccc(CSc2nc(-c3ccc(F)cc3)c(C#N)c(N3CCN(c4ccccc4)CC3)n2)cc1 [4p, 4-(4-Fluorophenyl)-2-((4-methylbenzyl)thio)-6-(4-phenylpiperazin-1-yl) pyrimidine-5-carbonitrile]",< 10,< 10,< 10,10.3,12.3,11,< 10,< 10,< 10,< 10,< 10,29.7,< 10,< 10,< 10,< 10,20.3,145 to 147,< 10,< 10,inhibition at 10 µM (A549/ATCC): 11.6%; inhibition at 10 µM (TK-10): < 10%; inhibition at 10 µM (HCT-15): 13.9%; inhibition at 10 µM (HL-60(TB)): < 10%; inhibition at 10 µM (CAKI-1): 16.6%
